The source of these data is US9216985B2, “3-aryl-2-((arylamino)methyl)quinazolin-4-(3H)-ones” (SciFluor Life Sciences, Inc., priority 2013, dated 2015).

In one test the target is PI3Kγ (Homo sapiens (Human), UniProt P48736). In words: Homogeneous Time Resolved Fluorescence (HTRF) lipid kinase assay. Format: biochemical. Conditions: HTRF format, 10 μM ATP. How it is done: (§1) The ability of the compounds of the present invention to inhibit the activity of four PI3K isoforms, PI3Kα, PI3Kβ, PI3Kγ, and PI3Kδ, were determined using a commercially available lipid kinase assay run in Homogeneous Time Resolved Fluorescence (HTRF) format.
(§2) Assay principle: The PIP3 product is detected by displacement of biotin-PIP3 from an energy transfer complex consisting of Europium labeled anti-GST monoclonal antibody, a GST-tagged pleckstrin homology (PH) domain, biotinylated PIP3 and Streptavidin-Allophycocyanin (APC). Excitation of Europium in the complex results in an energy transfer to the APC and a fluorescent emission at 665 nm. The PIP3 product formed by PI 3-Kinase(h) activity displaces biotin-PIP3 from the complex resulting in a loss of energy transfer and thus a decrease in signal.
(§3) This is a 3-step reaction: First, the kinase reaction with PIP2 substrate is carried out in the presence of ATP, and the reaction is quenched with stop Solution, and then finally detect by adding Detection Mixture followed by incubation.
(§4) Assay Buffer: HEPES 50 mM (pH7.0), NaN3 0.02%, BSA 0.01%, Orthovanadate 0.1 mM, 1% DMSO.
(§5) Detection buffer: HEPES 10 mM (pH7.0), BSA 0.02%, KF 0.16 M, EDTA 4 mM.
(§6) Substrate: […] PIP2 substrate (PI(4,5)P2)
(§7) ATP: 10 μM ATP under standard conditions
(§8) Control Inhibitor: PI-103
(§9) • 1. Prepare substrate in freshly prepared Reaction Buffer • 2. Deliver kinase into the substrate solution and gently mix • 3. Deliver compounds in 100% DMSO into the kinase reaction mixture by Acoustic technology (Echo550; nanolitter range), incubate for 10 min at room temp • 4. Deliver ATP into the reaction mixture to initiate the reaction • 5. Incubate for 30 min at 30° C. • 6. Quench the reaction with Stop Solution. • 7. Add Detection Mixture, and incubate for overnight. • 8. Measure HTRF: Ex=320 nm, ratio of Em=615 nm and Em=665 nm. Data Analysis:
(§10) The emission ratio is converted into μM PIP3 production based on PIP3 standard curves. The nonlinear regression to obtain the standard curve and IC50 values are performed using Graphpad Prism software.
A general note: In TR-FRET formats the signal depends on donor and acceptor labels being close together.

In another test the target is PI3Kδ (Homo sapiens (Human), UniProt O00329). The test is described as above. The format is biochemical. Conditions: HTRF format, 10 μM ATP. Here is the method: as §1, §2, §3, §4, §5, §6, §7, §8, §9, §10
In another test the target is PI3Kβ (Homo sapiens (Human), UniProt P42338). The test is described as above. To be noted: HTRF format, 10 μM ATP. Format: biochemical. Here is the method:
as §1, §2, §3, §4, §5, §6, §7, §8, §9, §10

The target of the next test is PI3Kα (Homo sapiens (Human), UniProt P42336). The description is as above. Format: biochemical. Conditions: HTRF format, 10 μM ATP. How it is done:
as §1, §2, §3, §4, §5, §6, §7, §8, §9, §10

In a further test the target is PI3Kβ human (1-1070) (Homo sapiens (Human), UniProt P42338). As to the kind of experiment: Reporter displacement assay. Format: binding. How it is done: (§11) The ability of the compounds of the present invention to inhibit the activity of four PI3K isoforms, PI3Kα, PI3Kβ, PI3Kγ, and PI3Kδ, were determined using the commercially available reporter displacement assay that is based on reporter probes that are designed to bind to the site of interest of the target protein. The proximity between reporter and protein results in the emission of an optical signal. Compounds that bind to the same site as the reporter probe displace the probe, causing signal diminution. Reporter displacement is measured over time after addition of compounds at various concentrations. The assay conditions were:
(§12) Assay plates: 384 well U bottom, PP, black, low volume (Corning, 3676)
(§13) Full probe displacement: absence of enzyme and compound
(§14) Full probe binding: absence of compound
(§15) Reaction buffer: 20 mM Mops, pH 7.01 mM DTT, 0.01% Tween 20

The target in the next test is PI3Kα human fl (Homo sapiens (Human), UniProt P42336). In words: Reporter displacement assay. The format is binding. Here is the method: as §11, §12, §13, §14, §15
The target in the next test is PI3Kδ human fl (Homo sapiens (Human), UniProt O00329). In words: Reporter displacement assay. The format is binding. Here is the method:
as §11, §12, §13, §14, §15

The target in a further test is PI3Kγ human (144-1102) (Homo sapiens (Human), UniProt P48736). In words: Reporter displacement assay. Format: binding. Here is the method:
as §11, §12, §13, §14, §15

Where only a bound is given, the exact number is not on record here.

Chain of PI3Kγ (P48736 whole entry, canonical isoform): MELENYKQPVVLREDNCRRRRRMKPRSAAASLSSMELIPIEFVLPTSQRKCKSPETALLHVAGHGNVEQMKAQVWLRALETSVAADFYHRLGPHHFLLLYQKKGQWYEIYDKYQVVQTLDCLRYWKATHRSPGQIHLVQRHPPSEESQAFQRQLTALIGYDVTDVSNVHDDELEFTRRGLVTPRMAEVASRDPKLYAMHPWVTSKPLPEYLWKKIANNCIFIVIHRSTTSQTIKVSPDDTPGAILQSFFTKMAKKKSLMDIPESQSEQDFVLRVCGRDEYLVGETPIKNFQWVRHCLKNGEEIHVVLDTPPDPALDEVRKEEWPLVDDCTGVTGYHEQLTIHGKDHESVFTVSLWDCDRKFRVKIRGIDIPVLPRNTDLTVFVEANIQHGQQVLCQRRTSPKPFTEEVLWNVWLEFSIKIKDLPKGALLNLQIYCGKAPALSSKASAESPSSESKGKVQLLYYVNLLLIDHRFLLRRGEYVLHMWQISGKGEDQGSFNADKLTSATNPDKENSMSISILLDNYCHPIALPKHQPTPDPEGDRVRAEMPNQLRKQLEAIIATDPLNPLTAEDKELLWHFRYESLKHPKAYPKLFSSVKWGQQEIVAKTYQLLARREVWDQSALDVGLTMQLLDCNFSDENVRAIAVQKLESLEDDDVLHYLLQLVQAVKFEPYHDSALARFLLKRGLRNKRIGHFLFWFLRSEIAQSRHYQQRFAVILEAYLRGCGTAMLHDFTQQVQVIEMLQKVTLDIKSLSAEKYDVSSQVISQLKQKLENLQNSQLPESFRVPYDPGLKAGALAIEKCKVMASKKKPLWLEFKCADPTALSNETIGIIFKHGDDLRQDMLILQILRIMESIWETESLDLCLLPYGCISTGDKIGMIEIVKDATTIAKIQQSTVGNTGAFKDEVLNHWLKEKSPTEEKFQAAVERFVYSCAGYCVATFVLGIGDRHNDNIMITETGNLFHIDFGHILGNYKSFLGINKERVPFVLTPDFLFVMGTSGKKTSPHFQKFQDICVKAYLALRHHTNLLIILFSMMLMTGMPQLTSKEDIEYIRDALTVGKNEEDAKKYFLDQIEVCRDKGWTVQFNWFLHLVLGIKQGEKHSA
Chain of PI3Kδ (O00329 whole entry): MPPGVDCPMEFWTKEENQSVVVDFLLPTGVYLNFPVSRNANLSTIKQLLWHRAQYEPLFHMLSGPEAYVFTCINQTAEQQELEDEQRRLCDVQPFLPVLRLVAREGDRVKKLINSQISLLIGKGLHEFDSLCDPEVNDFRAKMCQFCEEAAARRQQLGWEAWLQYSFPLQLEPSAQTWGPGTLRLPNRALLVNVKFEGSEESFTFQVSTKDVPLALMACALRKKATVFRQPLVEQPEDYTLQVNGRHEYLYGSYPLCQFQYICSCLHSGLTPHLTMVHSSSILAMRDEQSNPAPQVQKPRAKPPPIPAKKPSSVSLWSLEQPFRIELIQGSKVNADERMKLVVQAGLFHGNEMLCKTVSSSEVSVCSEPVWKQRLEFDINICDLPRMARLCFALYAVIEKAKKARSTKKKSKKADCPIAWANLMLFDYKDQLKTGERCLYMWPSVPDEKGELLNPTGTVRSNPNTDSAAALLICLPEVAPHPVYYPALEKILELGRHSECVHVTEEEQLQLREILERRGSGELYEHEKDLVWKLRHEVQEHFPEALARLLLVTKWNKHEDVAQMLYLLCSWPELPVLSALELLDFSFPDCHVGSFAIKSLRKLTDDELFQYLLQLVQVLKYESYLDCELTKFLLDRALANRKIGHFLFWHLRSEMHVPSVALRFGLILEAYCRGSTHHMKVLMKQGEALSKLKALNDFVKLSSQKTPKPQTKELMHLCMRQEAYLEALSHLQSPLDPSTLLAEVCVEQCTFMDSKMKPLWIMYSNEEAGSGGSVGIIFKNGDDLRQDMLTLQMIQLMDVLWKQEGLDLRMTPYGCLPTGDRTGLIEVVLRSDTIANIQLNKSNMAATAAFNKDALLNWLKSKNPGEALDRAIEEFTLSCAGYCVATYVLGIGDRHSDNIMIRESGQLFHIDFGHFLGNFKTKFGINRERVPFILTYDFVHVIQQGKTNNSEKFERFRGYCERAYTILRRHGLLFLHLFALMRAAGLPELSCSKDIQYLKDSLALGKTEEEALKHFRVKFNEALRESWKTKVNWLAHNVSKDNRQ
Chain of PI3Kδ (P27986 whole entry partner): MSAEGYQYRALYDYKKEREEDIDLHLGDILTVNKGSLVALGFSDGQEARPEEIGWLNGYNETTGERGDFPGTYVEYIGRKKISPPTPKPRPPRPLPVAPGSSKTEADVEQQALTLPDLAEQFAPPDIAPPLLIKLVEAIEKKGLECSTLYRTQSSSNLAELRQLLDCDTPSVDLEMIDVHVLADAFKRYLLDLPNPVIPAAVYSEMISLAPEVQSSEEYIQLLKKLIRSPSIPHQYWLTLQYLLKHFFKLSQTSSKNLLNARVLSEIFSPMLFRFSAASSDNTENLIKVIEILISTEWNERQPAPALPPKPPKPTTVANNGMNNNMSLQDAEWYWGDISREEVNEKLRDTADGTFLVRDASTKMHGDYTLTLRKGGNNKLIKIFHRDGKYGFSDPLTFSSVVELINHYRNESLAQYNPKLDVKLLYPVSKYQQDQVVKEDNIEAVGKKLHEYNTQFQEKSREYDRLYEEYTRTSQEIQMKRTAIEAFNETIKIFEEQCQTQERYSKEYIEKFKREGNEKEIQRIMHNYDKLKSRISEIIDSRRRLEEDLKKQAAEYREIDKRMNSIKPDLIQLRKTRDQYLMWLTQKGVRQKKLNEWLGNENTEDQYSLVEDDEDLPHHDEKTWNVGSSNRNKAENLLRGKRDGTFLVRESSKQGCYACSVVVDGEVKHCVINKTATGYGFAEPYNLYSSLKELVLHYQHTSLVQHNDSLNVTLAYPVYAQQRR
Chain of PI3Kα (P42336 whole entry): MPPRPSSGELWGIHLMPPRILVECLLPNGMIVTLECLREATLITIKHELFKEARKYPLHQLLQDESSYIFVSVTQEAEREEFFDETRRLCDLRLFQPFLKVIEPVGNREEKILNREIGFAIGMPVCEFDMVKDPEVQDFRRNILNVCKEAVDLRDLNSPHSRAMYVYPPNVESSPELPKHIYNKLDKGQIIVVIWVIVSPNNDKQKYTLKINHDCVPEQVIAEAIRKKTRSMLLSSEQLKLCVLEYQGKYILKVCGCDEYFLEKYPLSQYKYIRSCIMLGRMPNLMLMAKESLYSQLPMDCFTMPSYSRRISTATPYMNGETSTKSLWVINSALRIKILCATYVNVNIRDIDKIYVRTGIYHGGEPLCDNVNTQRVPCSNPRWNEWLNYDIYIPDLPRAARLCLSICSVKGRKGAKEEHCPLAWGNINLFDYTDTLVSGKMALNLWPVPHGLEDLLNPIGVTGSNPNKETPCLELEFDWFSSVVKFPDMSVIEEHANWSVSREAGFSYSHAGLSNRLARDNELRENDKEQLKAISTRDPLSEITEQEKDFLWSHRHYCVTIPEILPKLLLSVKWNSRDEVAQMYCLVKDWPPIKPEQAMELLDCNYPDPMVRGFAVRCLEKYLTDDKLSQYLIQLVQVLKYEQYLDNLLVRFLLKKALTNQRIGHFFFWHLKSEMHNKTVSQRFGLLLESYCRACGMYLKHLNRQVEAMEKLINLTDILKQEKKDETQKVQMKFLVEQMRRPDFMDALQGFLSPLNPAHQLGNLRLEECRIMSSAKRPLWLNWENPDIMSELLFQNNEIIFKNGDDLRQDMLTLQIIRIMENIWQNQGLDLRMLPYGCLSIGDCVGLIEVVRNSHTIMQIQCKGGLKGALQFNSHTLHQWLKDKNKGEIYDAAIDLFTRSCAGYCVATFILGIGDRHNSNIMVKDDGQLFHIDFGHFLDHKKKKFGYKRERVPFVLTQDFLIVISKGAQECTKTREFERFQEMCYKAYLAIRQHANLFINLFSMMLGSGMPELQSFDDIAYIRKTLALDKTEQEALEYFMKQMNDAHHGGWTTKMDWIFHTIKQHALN
Chain of PI3Kα (P27986 whole entry partner): as the sequence (P27986 whole entry partner) above
Chain of PI3Kβ (P42338 whole entry): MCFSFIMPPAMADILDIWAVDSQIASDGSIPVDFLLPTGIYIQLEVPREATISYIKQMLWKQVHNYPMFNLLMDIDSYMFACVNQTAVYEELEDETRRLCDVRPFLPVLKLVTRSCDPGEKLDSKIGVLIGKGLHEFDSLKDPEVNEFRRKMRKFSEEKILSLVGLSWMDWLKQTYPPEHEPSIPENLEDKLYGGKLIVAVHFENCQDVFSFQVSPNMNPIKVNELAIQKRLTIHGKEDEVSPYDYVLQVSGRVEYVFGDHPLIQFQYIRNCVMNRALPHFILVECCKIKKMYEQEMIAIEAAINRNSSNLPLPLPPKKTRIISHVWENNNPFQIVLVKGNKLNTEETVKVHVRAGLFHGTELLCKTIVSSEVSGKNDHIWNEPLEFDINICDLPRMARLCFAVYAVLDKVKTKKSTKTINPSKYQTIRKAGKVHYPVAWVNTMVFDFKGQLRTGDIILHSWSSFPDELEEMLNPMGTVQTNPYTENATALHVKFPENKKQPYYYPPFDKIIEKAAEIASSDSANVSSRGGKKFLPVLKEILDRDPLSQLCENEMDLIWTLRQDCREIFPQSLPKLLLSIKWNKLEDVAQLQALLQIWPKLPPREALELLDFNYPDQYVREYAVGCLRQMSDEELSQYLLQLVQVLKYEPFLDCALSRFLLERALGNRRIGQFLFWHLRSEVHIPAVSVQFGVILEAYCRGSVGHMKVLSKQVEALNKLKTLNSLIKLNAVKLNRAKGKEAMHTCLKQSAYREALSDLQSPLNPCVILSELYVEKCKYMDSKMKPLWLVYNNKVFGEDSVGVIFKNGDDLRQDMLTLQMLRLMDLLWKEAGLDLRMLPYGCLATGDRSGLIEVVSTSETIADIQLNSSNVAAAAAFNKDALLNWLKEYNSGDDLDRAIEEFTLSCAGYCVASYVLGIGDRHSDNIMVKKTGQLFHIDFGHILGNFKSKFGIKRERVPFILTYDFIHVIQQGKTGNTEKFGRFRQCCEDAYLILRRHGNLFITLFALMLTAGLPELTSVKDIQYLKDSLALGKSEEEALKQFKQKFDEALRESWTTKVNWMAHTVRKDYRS
Chain of PI3Kβ (P27986 whole entry partner): as the sequence (P27986 whole entry partner) above

A word on the IC50: it is the point on the concentration scale where inhibition reaches its midpoint. A high value points to lower potency. For the compound `O=c1c2c(F)cccc2nc([C@H](CC(F)(F)F)Nc2ncnc3[nH]cnc23)n1-c1ccccc1` [Compound 2A, (S)-2-(1-((9H-purin-6-yl)amino)-3,3,3-trifluoropropyl)-5-fluoro-3-phenylquinazolin-4(3H)-one], the IC50 at PI3Kγ was 1.8 µM; on PI3Kδ, 0.08 µM; at PI3Kβ it was 3.9 µM.

In the case of `CC[C@H](Nc1ncnc2[nH]cnc12)c1nc2cccc(F)c2c(=O)n1-c1cccc(CC(F)(F)F)c1` [Compound 6A, (S)-2-(1-((9H-purin-6-yl)amino)propyl)-5-fluoro-3-(3-(2,2,2-trifluoroethyl)phenyl)quinazolin-4(3H)-one], the IC50 amounted to 15 µM at PI3Kα, 0.3 µM against PI3Kγ, 0.02 µM against PI3Kδ and 3.1 µM against PI3Kβ.

As to `O=c1c2c(F)cccc2nc(CNc2ncnc3[nH]ccc23)n1-c1cccc(OCC(F)(F)F)c1` [Compound 21A, 2-(((7H-pyrrolo[2,3-d]pyrimidin-4-yl)amino)methyl)-5-fluoro-3-(3-(2,2,2-trifluoroethoxy)phenyl)quinazolin-4(3H)-one], the IC50 against PI3Kδ was 2.1 µM; on PI3Kβ, > 10 µM.

Regarding `C[C@H](Nc1ncnc2[nH]ccc12)c1nc2cccc(F)c2c(=O)n1-c1cccc(OCC(F)F)c1` [Compound 22A, (S)-2-(1-((7H-pyrrolo[2,3-d]pyrimidin-4-yl)amino)ethyl)-3-(3-(2,2-difluoroethoxy)phenyl)-5-fluoroquinazolin-4(3H)-one], the IC50 is 2.1 µM at PI3Kβ human (1-1070), 9.8 µM on PI3Kα human fl, 0.02 µM at PI3Kδ human fl and 1.2 µM on PI3Kγ human (144-1102).

On to `C[C@H](Nc1ncnc2[nH]ccc12)c1nc2cccc(F)c2c(=O)n1-c1ccc(OCC(F)(F)F)cc1` [Compound 15A, (S)-2-(1-((7H-pyrrolo[2,3-d]pyrimidin-4-yl)amino)ethyl)-5-fluoro-3-(4-(2,2,2-trifluoroethoxy)phenyl)quinazolin-4(3H)-one], for which the IC50 came to 9.7 µM against PI3Kα, 0.74 µM against PI3Kγ, 0.009 µM on PI3Kδ and 7.3 µM against PI3Kβ.

For the compound `CC[C@H](Nc1ncnc2[nH]cnc12)c1nc2cccc(F)c2c(=O)n1-c1cccc(OCC(F)(F)F)c1` [Compound 10A, (S)-2-(1-((9H-purin-6-yl)amino)propyl)-5-fluoro-3-(3-(2,2,2-trifluoroethoxy)phenyl)quinazolin-4(3H)-one], the values for the IC50 on PI3Kγ and against PI3Kδ were 0.74 µM and 0.02 µM, respectively.

On to `CC[C@H](Nc1ncnc2[nH]ccc12)c1nc2cccc(F)c2c(=O)n1-c1cccc(OCC(F)(F)F)c1` [Compound 11A, (S)-2-(1-((7H-pyrrolo[2,3-d]pyrimidin-4-yl)amino)propyl)-5-fluoro-3-(3-(2,2,2-trifluoroethoxy)phenyl)quinazolin-4(3H)-one], for which the IC50 worked out at 115 µM on PI3Kα, 3 µM against PI3Kγ and 0.11 µM on PI3Kδ.

`C[C@H](Nc1ncnc2[nH]cc(F)c12)c1nc2cccc(F)c2c(=O)n1-c1cccc(OCC(F)(F)F)c1` [Compound 17A, (S)-5-fluoro-2-(1-((5-fluoro-7H-pyrrolo[2,3-d]pyrimidin-4-yl)amino)ethyl)-3-(3-(2,2,2-trifluoroethoxy)phenyl)quinazolin-4(3H)-one]: the IC50 on PI3Kα was determined as 10 µM; against PI3Kγ, 1.2 µM; on PI3Kδ, 0.008 µM; at PI3Kβ, 3.4 µM.

Regarding `C[C@H](Nc1ncnc2[nH]ccc12)c1nc2cccc(F)c2c(=O)n1-c1cccc(OCC(F)(F)C(F)(F)F)c1` [Compound 19A, (S)-2-(1-((7H-pyrrolo[2,3-d]pyrimidin-4-yl)amino)ethyl)-5-fluoro-3-(3-(2,2,3,3,3-pentafluoropropoxy)phenyl)quinazolin-4(3H)-one], the IC50 on PI3Kα is > 10 µM; against PI3Kγ, 4.5 µM; at PI3Kδ, 0.19 µM; on PI3Kβ, > 10 µM.

As to `CC[C@H](Nc1ncnc2[nH]ccc12)c1nc2cccc(F)c2c(=O)n1-c1ccccc1` [Compound 1A, (S)-2-(1-((7H-pyrrolo[2,3-d]pyrimidin-4-yl)amino)propyl)-5-fluoro-3-phenylquinazolin-4(3H)-one], the IC50 against PI3Kα is 3.7 µM; against PI3Kγ, 1.2 µM; at PI3Kδ it was 0.008 µM; at PI3Kβ, 0.65 µM.

For `CC[C@H](Nc1ncnc2[nH]ccc12)c1nc2cccc(F)c2c(=O)n1-c1cccc(CC(F)(F)F)c1` [Compound 7A, (S)-2-(1-((7H-pyrrolo[2,3-d]pyrimidin-4-yl)amino)propyl)-5-fluoro-3-(3-(2,2,2-trifluoroethyl)phenyl)quinazolin-4(3H)-one], the IC50 at PI3Kα came out at 28 µM; at PI3Kγ it was 1.3 µM; at PI3Kδ, 0.05 µM; against PI3Kβ it was 5.8 µM.

As for `C[C@H](Nc1ncnc2[nH]ccc12)c1nc2cccc(Cl)c2c(=O)n1-c1cccc(OCC(F)(F)F)c1` [Compound 20A, (S)-2-(1-((7H-pyrrolo[2,3-d]pyrimidin-4-yl)amino)ethyl)-5-chloro-3-(3-(2,2,2-trifluoroethoxy)phenyl)quinazolin-4(3H)-one], the IC50 came out at 4.1 µM against PI3Kα, 0.46 µM against PI3Kγ, 0.01 µM at PI3Kδ and 1.1 µM against PI3Kβ.

On to `CC[C@H](Nc1ncnc2[nH]ccc12)c1nc2cccc(F)c2c(=O)n1-c1ccc(OCC(F)(F)F)cc1` [Compound 16A, (S)-2-(1-((7H-pyrrolo[2,3-d]pyrimidin-4-yl)amino)propyl)-5-fluoro-3-(4-(2,2,2-trifluoroethoxy)phenyl)quinazolin-4(3H)-one], for which the IC50 stood at 5.4 µM against PI3Kγ, 0.09 µM against PI3Kδ and 10.5 µM against PI3Kβ.
